Holding throughout (assay): AK assay 384-well format, Prestwick library screening
One test has as its system P. aeruginosa. The class given is cell-based, Pseudomonas aeruginosa. Conditions: 50 μM final drug concentration; for fold induction at 50 µM: Pseudomonas aeruginosa, 3 h.
The next test concerns E. coli. The format is cell-based, Escherichia coli. Conditions: 50 μM final drug concentration; for fold induction at 50 µM: Escherichia coli, 3 h.
The next test has as its system E. faecium. The class given is cell-based, Enterococcus faecium. The settings on record: 50 μM final drug concentration; for fold induction at 50 µM: Enterococcus faecium, 3 h.
The test system of test [1] is S. aureus strain USA300-0114. The class given is cell-based, Staphylococcus aureus. The settings on record: 50 μM final drug concentration; for fold induction at 50 µM: Staphylococcus aureus, USA300, 3 h.
The next test concerns E. cloacae. The format is cell-based, Enterobacter cloacae. Conditions: 50 μM final drug concentration; for fold induction at 50 µM: Enterobacter cloacae, 3 h.
Another test concerns K. pneumoniae. The format is cell-based, Klebsiella pneumoniae. The settings on record: 50 μM final drug concentration; for fold induction at 50 µM: Klebsiella pneumoniae, 3 h.
Test [2] concerns A. baumannii strain 98-37-09. The class given is cell-based, Acinetobacter baumannii. Conditions: 50 μM final drug concentration; for fold induction at 50 µM: Acinetobacter baumannii, 983709, 3 h.
Setting [3] is: cutoff for positive-scoring molecules 3-fold increase, read-out: AK-based Prestwick Library Screening Results, P. aeruginosa (fold increase in extracellular AK activity).
[4] abbreviates: cutoff for positive-scoring molecules 3-fold increase, read-out: AK-based Prestwick Library Screening Results, E. coli (fold increase in extracellular AK activity).
The mark [5] stands for this setting: cutoff for positive-scoring molecules 3-fold increase, read-out: AK-based Prestwick Library Screening Results, E. faecium (fold increase in extracellular AK activity).
Where [6] appears, read: cutoff for positive-scoring molecules 3-fold increase, read-out: AK-based Prestwick Library Screening Results, S. aureus (fold increase in extracellular AK activity).
Where [7] appears, read: cutoff for positive-scoring molecules 3-fold increase, read-out: AK-based Prestwick Library Screening Results, E. cloacae (fold increase in extracellular AK activity).
[8] abbreviates: cutoff for positive-scoring molecules 3-fold increase, read-out: AK-based Prestwick Library Screening Results, K. pneumoniae (fold increase in extracellular AK activity).
Where [9] appears, read: cutoff for positive-scoring molecules 3-fold increase, read-out: AK-based Prestwick Library Screening Results, A. baumannii (fold increase in extracellular AK activity).
The mark [10] stands for this setting: 384-well format, cutoff for positive-scoring molecules 3-fold increase.
Where [11] appears, read: planktonic, […], read-out: AK-based Prestwick Library Screening Results, P. aeruginosa (fold increase in extracellular AK activity).
Where [12] appears, read: planktonic, […], read-out: AK-based Prestwick Library Screening Results, E. coli (fold increase in extracellular AK activity).
Where [13] appears, read: planktonic, […], read-out: AK-based Prestwick Library Screening Results, E. faecium (fold increase in extracellular AK activity).
Setting [14] is: planktonic, […], read-out: AK-based Prestwick Library Screening Results, S. aureus (fold increase in extracellular AK activity).
[15] abbreviates: planktonic, […], read-out: AK-based Prestwick Library Screening Results, E. cloacae (fold increase in extracellular AK activity).
[16] abbreviates: planktonic, […], read-out: AK-based Prestwick Library Screening Results, K. pneumoniae (fold increase in extracellular AK activity).
Where [17] appears, read: planktonic, […], read-out: AK-based Prestwick Library Screening Results, A. baumannii (fold increase in extracellular AK activity).

Each structure is given as a SMILES string. Structures can show the parent of a compound that is named as a salt. Where two headings read alike, the source gives them in different places.

On to `COc1ccc(OC)c(C(O)C(C)N)c1` (stereo not drawn) [Methoxamine hydrochloride], for which the fold induction at 50 µM in the test with P. aeruginosa (planktonic, cutoff for positive 3-fold increase, read-out: AK-based Prestwick Library Screening Results, P. aeruginosa (fold increase in extracellular AK activity)) came out at 1.2; in the test with E. coli (planktonic, cutoff for positive 3-fold increase, read-out: AK-based Prestwick Library Screening Results, E. coli (fold increase in extracellular AK activity)), 1.1; with E. faecium (planktonic, cutoff for positive 3-fold increase, read-out: AK-based Prestwick Library Screening Results, E. faecium (fold increase in extracellular AK activity)) it was 1; in test [1] (planktonic, cutoff for positive 3-fold increase, read-out: AK-based Prestwick Library Screening Results, S. aureus (fold increase in extracellular AK activity)) it was 0.9; with E. cloacae (planktonic, cutoff for positive 3-fold increase, read-out: AK-based Prestwick Library Screening Results, E. cloacae (fold increase in extracellular AK activity)), 1.4; with K. pneumoniae (planktonic, cutoff for positive 3-fold increase, read-out: AK-based Prestwick Library Screening Results, K. pneumoniae (fold increase in extracellular AK activity)) it was 1. Also, in test [2] (planktonic, cutoff for positive 3-fold increase, read-out: AK-based Prestwick Library Screening Results, A. baumannii (fold increase in extracellular AK activity)), the fold induction at 50 µM came to 1.
On to `Cc1cc2cc3c(C)cc(=O)oc3c(C)c2o1` [Trioxsalen], for which the fold induction at 50 µM in the test with P. aeruginosa (setting [3]) was 1; in the test on E. coli (setting [4]) it was 1.2; in the test on E. faecium (setting [5]), 0.9; in test [1] (setting [6]) it was 0.9; in the test with E. cloacae (setting [7]) it was 1.3; in the test with K. pneumoniae (setting [8]), 1. In test [2] (setting [9]), the fold induction at 50 µM turned out to be 1.2.
With `C[C@@H]1CC[C@H]2[C@@H](C)C(=O)O[C@@H]3O[C@@]4(C)CC[C@@H]1[C@]32OO4` [Artemisinin], the fold induction at 50 µM was 0.6 with P. aeruginosa (planktonic P. aeruginosa, cutoff for positive-scoring molecules 3-fold increase, read-out: AK-based Prestwick Library Screening Results, P. aeruginosa (increase in extracellular AK activity)); 0.5 with E. coli (planktonic E. coli, cutoff for positive-scoring molecules 3-fold increase, read-out: AK-based Prestwick Library Screening Results, E. coli (increase in extracellular AK activity)); 0.9 with E. faecium (planktonic E. faecium, cutoff for positive-scoring molecules 3-fold increase, read-out: AK-based Prestwick Library Screening Results, E. faecium (increase in extracellular AK activity)); 0.5 in test [1] (planktonic S. aureus, cutoff for positive-scoring molecules 3-fold increase, read-out: AK-based Prestwick Library Screening Results, S. aureus (increase in extracellular AK activity)); 0.7 in the test with E. cloacae (planktonic E. cloacae, cutoff for positive-scoring molecules 3-fold increase, read-out: AK-based Prestwick Library Screening Results, E. cloacae (increase in extracellular AK activity)); 0.6 in the test on K. pneumoniae (planktonic K. pneumoniae, cutoff for positive-scoring molecules 3-fold increase, read-out: AK-based Prestwick Library Screening Results, K. pneumoniae (increase in extracellular AK activity)). Further, in test [2] (planktonic A. baumannii, cutoff for positive-scoring molecules 3-fold increase, read-out: AK-based Prestwick Library Screening Results, A. baumannii (increase in extracellular AK activity)), the fold induction at 50 µM worked out at 0.7.
In the case of `C[C@H](N)[C@H](O)c1cccc(O)c1` [Metaraminol bitartrate], the fold induction at 50 µM in the test on P. aeruginosa (384-well format, cutoff for positive-scoring molecules 3-fold increase, read-out: AK-based Prestwick Library Screening Results, P. aeruginosa (increase in extracellular AK activity)) was 0.8; in the test on E. coli (384-well format, cutoff for positive-scoring molecules 3-fold increase, read-out: AK-based Prestwick Library Screening Results, E. coli (increase in extracellular AK activity)) it was 1; in the test on E. faecium (384-well format, cutoff for positive-scoring molecules 3-fold increase, read-out: AK-based Prestwick Library Screening Results, E. faecium (increase in extracellular AK activity)) it was 1; in test [1] (384-well format, cutoff for positive-scoring molecules 3-fold increase, read-out: AK-based Prestwick Library Screening Results, S. aureus (increase in extracellular AK activity)), 0.7; in the test on E. cloacae (384-well format, cutoff for positive-scoring molecules 3-fold increase, read-out: AK-based Prestwick Library Screening Results, E. cloacae (increase in extracellular AK activity)), 1.3; in the test on K. pneumoniae (384-well format, cutoff for positive-scoring molecules 3-fold increase, read-out: AK-based Prestwick Library Screening Results, K. pneumoniae (increase in extracellular AK activity)), 0.8. In addition, the fold induction at 50 µM in test [2] (384-well format, cutoff for positive-scoring molecules 3-fold increase, read-out: AK-based Prestwick Library Screening Results, A. baumannii (increase in extracellular AK activity)) came to 0.9.
For the molecule `C=C1CC[C@H](O)C/C1=C/C=C1\CCC[C@]2(C)[C@@H]([C@H](C)CCCC(C)C)CC[C@@H]12` [Cholecalciferol], the fold induction at 50 µM was determined as 0.9 with P. aeruginosa (planktonic P. aeruginosa, […], read-out: AK-based Prestwick Library Screening Results, P. aeruginosa (increase in extracellular AK activity)); 1 with E. coli (planktonic E. coli, […], read-out: AK-based Prestwick Library Screening Results, E. coli (increase in extracellular AK activity)); 0.9 in the test with E. faecium (planktonic E. faecium, […], read-out: AK-based Prestwick Library Screening Results, E. faecium (increase in extracellular AK activity)); 0.7 in test [1] (planktonic S. aureus, […], read-out: AK-based Prestwick Library Screening Results, S. aureus (increase in extracellular AK activity)); 1 with E. cloacae (planktonic E. cloacae, […], read-out: AK-based Prestwick Library Screening Results, E. cloacae (increase in extracellular AK activity)); 0.7 in the test on K. pneumoniae (planktonic K. pneumoniae, […], read-out: AK-based Prestwick Library Screening Results, K. pneumoniae (increase in extracellular AK activity)). Besides, the fold induction at 50 µM in test [2] (planktonic A. baumannii, […], read-out: AK-based Prestwick Library Screening Results, A. baumannii (increase in extracellular AK activity)) stood at 0.8.
Consider `Cc1c(N(C)C)c(=O)n(-c2ccccc2)n1C` [Amidopyrine], for which, in the test with P. aeruginosa (setting [10]), the “AK-based Prestwick Library Screening Results, P. aeruginosa (increase in extracellular AK activity)” value was found to be 0.4. Besides, the “AK-based Prestwick Library Screening Results, E. coli (increase in extracellular AK activity)” value in the test on E. coli (setting [10]) is recorded as 0.5. The “AK-based Prestwick Library Screening Results, E. faecium (increase in extracellular AK activity)” value in the test with E. faecium (setting [10]) was determined as 0.9. Moreover, the “AK-based Prestwick Library Screening Results, S. aureus (increase in extracellular AK activity)” value in test [1] (setting [10]) is 0.4. Moreover, in the test on E. cloacae (setting [10]), the “AK-based Prestwick Library Screening Results, E. cloacae (increase in extracellular AK activity)” value is 0.4. The “AK-based Prestwick Library Screening Results, K. pneumoniae (increase in extracellular AK activity)” value in the test with K. pneumoniae (setting [10]) came to 0.5. Also, the “AK-based Prestwick Library Screening Results, A. baumannii (increase in extracellular AK activity)” value in test [2] (setting [10]) turned out to be 0.4.
Turning to `COc1c(O[C@@H]2O[C@H](CO)[C@@H](O)[C@H](O)[C@H]2O)cc2c(c1OC)-c1ccc(SC)c(=O)cc1[C@@H](NC(C)=O)CC2` [Thiocolchicoside], the fold induction at 50 µM with P. aeruginosa (setting [11]) turned out to be 1; in the test with E. coli (setting [12]), 1; with E. faecium (setting [13]), 1.1; in test [1] (setting [14]), 1.2; in the test on E. cloacae (setting [15]), 1.7; in the test on K. pneumoniae (setting [16]), 0.8. In addition, in test [2] (setting [17]), the fold induction at 50 µM is 0.9.
Take `CN(CCCCCCCCCCN(C)C(=O)Oc1cccc([N+](C)(C)C)c1)C(=O)Oc1cccc([N+](C)(C)C)c1` [Demecarium bromide]: the fold induction at 50 µM came to 1.3 with P. aeruginosa (setting [11]); 1.4 in the test with E. coli (setting [12]); 1 with E. faecium (setting [13]); 0.8 in test [1] (setting [14]); 2 with E. cloacae (setting [15]); 1 with K. pneumoniae (setting [16]). The fold induction at 50 µM in test [2] (setting [17]) was 1.1.
For `c1ccc2c(c1)OCC(C1=NCCN1)O2` (stereo not drawn) [Idazoxan hydrochloride], the fold induction at 50 µM with P. aeruginosa (setting [3]) was found to be 1.2; in the test with E. coli (setting [4]) it was 1.1; in the test on E. faecium (setting [5]), 1; in test [1] (setting [6]), 1.1; in the test on E. cloacae (setting [7]) it was 1.5; with K. pneumoniae (setting [8]), 1. Further, the fold induction at 50 µM in test [2] (setting [9]) is 1.1.

The values above are taken from US10004701B2, “Methods and compositions for treating infection” (UNIVERSITY OF ROCHESTER, priority 2012, dated 2018).
